Measured values taken from PMC8406319, “The dCache Chemoreceptor TlpA of Helicobacter pylori Binds Multiple Attractant and Antagonistic Ligands via Distinct Sites” (mBio, 2021).
Structures can show the parent of a compound that is named as a salt.

How the values were obtained:
[1] = test system: H. pylori PMSS1 WT; experiment: Temporal chemotaxis assay (live-cell video microscopy, direction changes), WT; assay type: cell-based, Helicobacter pylori; settings: for Chemotactic response (direction changes vs mock): WT, 0.1, 1, 10 mM tested, acidic ligand stocks pH neutralized with NaOH, 10 mM most significant; for Chemotactic response, ligand stock pH not adjusted: acidic in solution, unadjusted pH
Experimental: H. pylori chemotactic responses toward the seven putative TlpA-dependent ligands were examined by a live-cell video microscopy assay that measures the temporal chemotaxis response to test ligands. […] Acidic conditions are sensed by chemoreceptors other than TlpA ([24], [29], [31]) and potentially mask chemotactic responses to the ligands being tested.
Cultures of H. pylori PMSS1 WT and ΔtlpA strains were grown overnight, back-diluted, and then incubated until an OD600 of 0.12 to 0.15 was reached. Cultures were treated with water (Mock) or various concentrations of compounds, as indicated. […] The cells were immediately filmed, and direction changes were counted over a 3-s swimming period in at least 100 cells per treatment from 3 biological replicates. Data are normalized to the values for the untreated control for each strain, as described in Materials and Methods. Error bars represent the standard errors of the means. *, P < 0.05; **, P < 0.01; ***, P < 0.001 (comparisons to the untreated control per strain using two-way ANOVA with Dunnett’s multiple-comparison test).
Swimming behavior assays were done with H. pylori PMSS1 strains grown in BB10 as described above. Cultures grown overnight were diluted to an optical density at 600 nm (OD600) of 0.1 in fresh BB10 and then incubated with shaking as described above until an OD600 of 0.12 to 0.15 was reached. […] The number of direction changes in a bacterial swimming trajectory was enumerated over a 3-s interval to determine whether each putative ligand is sensed as an attractant or repellent or elicits no response ([20], [25][–][30]). […] Each control is sensed by chemoreceptors other than TlpA ([24], [25], [29], [31]). The pH of BB10 upon treatment was independently assessed using a Denver Instruments pH meter. […] Therefore, to be able to compare the results to those of previous experiments, we continued resuspending acidified ligands in pure water and then adjusting the pH of the resuspended ligand using NaOH. Cultures were filmed immediately after ligand addition at a ×400 magnification using a Hamamatsu C4742-95 digital camera with μManager software (version 1.4.22), mounted on a Nikon Eclipse E600 phase-contrast microscope. For the competition chemotaxis assay, cultures of H. pylori and ligands were prepared as described above. However, 1 min after the addition of a nonchemoactive ligand at a final concentration of 10 mM, a chemoactive ligand was added at a final concentration of 10 mM, and the cultures were then filmed as described above. Videos were relabeled to blind the observer to the strain identity. For each sample, >100 3-s-long bacterial tracks from three independent cultures were analyzed manually to identify stops followed by direction changes. Data for all biological replicates under each condition were combined, and the average number of direction changes in 3 s and the standard error of the mean were calculated. For each strain, data were normalized to the values for the untreated control under each experimental condition. Statistical analysis of the data for treated versus untreated samples was performed using two-way analysis of variance (ANOVA) and Dunnett’s multiple-comparison test.

[2] = test system: WT TlpALBD; experiment: SPR competition (A-B-A) binding assay; parameters: species or system Helicobacter pylori SS1; settings: compounds at 10-fold their Kd
Experimental: The two ligands’ binding status can be classified as either independent, shared, or preferential shared sites. For independent sites, ligand A saturates all its binding sites, and ligand B then binds to its independent site; this mode produces additive effects on the SPR signal. […] Finally, it is also possible to have preferential shared sites where ligands share the same binding site, but the protein binds to one ligand preferentially when in equilibrium.
SPR competition assays were performed by using a Biacore S200 instrument and the A-B-A inject function ([56]). Competition A-B-A analyses were used to interrogate the specificity of the potential ligand binding site preferences of TlpALBD and to unravel the nature of the ligand-sensor interactions. This assay was designed to show if a cumulative response is observed when a second analyte (B) is flown across the bound protein saturated with the first analyte (A) (Fig. 4). […] The wild-type TlpALBD protein was immobilized as described above. […] All response data were normalized to a molecular weight of 100 Da for each analyte, allowing direct comparison of responses. Independent-site theoretical values are calculated by taking the sum of individual responses. Shared-site theoretical values are calculated by taking the sum of individual responses divided by the number of individual responses.

SMILES	Chemotactic response (direction changes vs mock) [1]	SPR response following initial saturation with glucosamine [2]	SPR response after saturation of TlpALBD with fumarate ([2]; compared to theoretical value)	Chemotactic response, ligand stock pH not adjusted [1]	SPR response after saturation of TlpALBD with arginine ([2]; compared to theoretical value)	SPR response following saturation with arginine or fumarate [2]
N=C(N)NCCC[C@H](N)C(=O)O [Arginine, L-arginine monohydrochloride]	fewer direction changes	no additive response was observed	did not produce an additional response			
N[C@@H](CS)C(=O)O [Cysteine, L-cysteine hydrochloride monohydrate]	fewer direction changes			significant TlpA-independent chemorepellent responses		
O=C(O)/C=C/C(=O)O [Fumarate, sodium fumarate]	fewer direction changes	no additive response was observed			increased response (additive effect)	
N[C@H]1C(O)O[C@H](CO)[C@@H](O)[C@@H]1O (stereo partly drawn) [Glucosamine, D(+)-glucosamine hydrochloride]	no significant direction changes					the response was not additive
O=C(O)C[C@H](O)C(=O)O [Malic acid, L-malic acid]	no significant direction changes			significant TlpA-independent chemorepellent responses		
Cc1ncc(C[n+]2csc(CCO)c2C)c(N)n1 [Thiamine, thiamine hydrochloride]	no significant direction changes			significant TlpA-independent chemorepellent responses		
